What was measured:
[1] = system: spontaneously hypertensive rats (SHR); experiment: Long-term (4 weeks) consumption in SHR, tail-cuff blood pressure; assay type: in vivo, rat
Description: SHR were feed ad libitum with milk fermented by L. lactis NRRL B-50571, L. lactis NRRL B-50572, captopril (40 mg/kg body weight) or purified water for four weeks. […] Additionally, milk fermented by L. lactis strains modified SHR lipid profiles. Milk fermented by L. lactis NRRL B-50571 and B-50572 was able to reduce plasma low-density lipoprotein (LDL) cholesterol by 55.4±3 mg/dL and 66.3±4 mg/dL, respectively. Thus, milk fermented by L. lactis strains may be a coadjuvant in the reduction of hypertension and hyperlipidemia and may be used as a functional food for better cardiovascular health. […] Subsequently, samples were frozen at −20° C. All fermented milk samples were daily unfrozen and homogenized (for 20 minutes before use. Thirty-two male SHR were obtained from Harlan Laboratories, Inc., (Indianapolis, Ill., USA). The rats were randomly housed in pairs per cage at 21±2° C. with 12 h light/dark cycles, 52±6% relative humidity and with ad libitum intake of a standard diet (TEKLAD, Harlan Laboratories, USA) during the experiment. SHR (27-28 weeks old and 355±24 g weight) were divided into four groups of eight rats (n=8): purified water (negative control), captopril (proven hypotensive drug, positive control) (40 mg/kg body weight (BW), milk fermented by L. lactis NRRL B-50571 and milk fermented by L. lactis NRRL 50572. All SHR had free access to each treatment during three weeks as part of the protocol. Half of the animals were sacrificed at the end of that period. The rest of the SHR only received purified water during one more week before being sacrificed. A research animal protocol was followed according to the guidelines established by the institutional (CIAD, A.C.) Ethics Committee. The lowering blood pressure effect of milk fermented by specific L. lactis strains on SHR was monitored through time. […] Systolic (SBP) and diastolic (DBP) blood pressures were measured five times on each conscious animal before treatments and every week during the experiment. […]

[2] = system: spontaneously hypertensive rats (SHR); experiment: Single-dose oral administration in SHR, tail cuff blood pressure and heart rate; assay type: in vivo, rat; details: single oral dose 40 mg/kg BW
Description: However, the relationship between ACEI and the in vivo action had to be tested. Therefore, the antihypertensive and heart rate (HR) lowering effect of milk fermented by specific L. lactis in a murine model was investigated. Spontaneously hypertensive male rats (SHR) (271±14 g) were randomized into […]: oral administration of milk fermented by L. lactis NRRL B-50571 or L. lactis NRRL B-50572 at 35 or 50 mg protein/kg of body weight (BW). Two more groups were fed with different solutions as controls: a saline solution was the negative control, meanwhile captopril (40 mg/kg BW), a proven ACE inhibitor was the positive control. Blood pressure and heart rate were monitored by the tail cuff method before treatments and 2, 4, 6 and 24 h post oral administration. […] Thus, milk fermented by specific L. lactis strains present potential benefits in the prevention and treatment of cardiovascular diseases associated to hypertension in humans. Samples of specific L. lactis fermented milk (prepared as previously described) for the single dose bioassay were obtained by centrifugation at 20,000×g for 10) min at 0° C. […] SHR were weaned for eight weeks and their systolic blood pressure monitored during this period. […] Systolic blood pressure (SBP), diastolic blood pressure (DBP) as well as heart rate (HR) were monitored before administration and 2, 4, 6 and 24 h post-administration. […]

SMILES: C[C@H](CS)C(=O)N1CCC[C@H]1C(=O)O [captopril]
- SBP reduction ([1]; fourth week (only water in last week), fermented milk ad libitum, captopril 40 mg/kg BW): 28.1±1.8 mm Hg
- effect on SBP ([1]; second and third week): marked lowering-effect
- DBP reduction ([1]; second week, fermented milk ad libitum, captopril 40 mg/kg BW): 38.4±8.5 mm Hg
- decrease of SBP ([2]; 6 h, significantly different from the treatments): maximum decrease
- DBP reduction ([2]; each measurement (2, 4, 6, 24 h)): maximum DBP reduction
